Results on 117 sequences are retold here after the supplement of paper PMC4314810.

± gives the standard deviation of the averaged measurements.

The data set concerns MCF7. As to the kind of experiment: HRG-induced Akt activation (dPAkt = log2 pAkt/Akt HRG-stimulated minus log2 pAkt/Akt basal) (log2 ratio difference); higher = stronger HRG-induced Akt(T308) phosphorylation. Particulars: miRNA mimic concentration 10 nM; time after transfection 72 h; heregulin 10 ng/ml; stimulation time 1 h. A digest of the protocol:
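MCF7 cells ([…], 96-well plates) were transfected with a library of 879 miRNA mimics at 10 nM final using Lipofectamine RNAiMax, in two biological replicates. After 72 h, cells were stimulated with 10 ng/ml heregulin-beta1 for 1 h or left unstimulated. They were fixed with 4% PFA, and phospho-Akt(T308) and total Akt were read by In-Cell Western on an Odyssey. Signals were corrected for column-wise fixation decay, and HRG-induced Akt activation is log2(pAkt/Akt) stimulated minus unstimulated, averaged over replicates.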
Regarding AAAAACUGAGACUACUUUUGCA, the “HRG-induced Akt activation (log2)” value is 1.33 ± 0.15. In the case of AAAAACUGUAAUUACUUUU it was 1.15 ± 0.3.

For AAAACCGUCUAGUUACAGUUGU, the “HRG-induced Akt activation (log2)” value was determined as 1.26 ± 0.26. The same measure for AAAACGGUGAGAUUUUGUUUU: 1.75 ± 0.2; for AAAACUGUAAUUACUUUUGUAC: 1.26 ± 0.31.

With AAAAGCUGGGUUGAGAGGA, the “HRG-induced Akt activation (log2)” value is 1.507 ± 0.011. The same measure for AAAAGCUGGGUUGAGAGGGCAA: 1.61 ± 0.092; for AAAAGCUGGGUUGAGAGGGCGA: 1.44 ± 0.13. Regarding AAAAGCUGGGUUGAGAGGGU, the “HRG-induced Akt activation (log2)” value came to 1.89 ± 0.17. The same measure for AAAAGUAAUCGCGGUUUUUGUC: 1.2 ± 0.063; for AAAAGUAAUUGCGAGUUUUACC: 1.34 ± 0.091.

In the case of AAAAGUAAUUGCGGAUUUUGCC, the “HRG-induced Akt activation (log2)” value was determined as 0.977 ± 0.53. In the case of AAAAGUAAUUGCGGUCUUUGGU it was 1.32 ± 0.034; in that of AAAAGUAAUUGCGGUUUUUGCC, 1.53 ± 0.17. The same measure for AAAAGUAAUUGUGGUUUUGGCC: 1.15 ± 0.15; for AAAAGUAAUUGUGGUUUUUGCC: 1.07 ± 0.085. The same measure for AAAAGUACUUGCGGAUUUUGCU: 1.58 ± 0.21; for AAAAGUAUUUGCGGGUUUUGUC: 1.58 ± 0.098. Turning to AAAAGUGCUUACAGUGCAGGUAG, the “HRG-induced Akt activation (log2)” value was 1.2 ± 0.069. Regarding AAAAUGGUGCCCUAGUGACUACA, the “HRG-induced Akt activation (log2)” value came out at 1.9 ± 0.43. The same measure for AAAAUGGUUCCCUUUAGAGUGU: 1.21 ± 0.31; for AAACAAACAUGGUGCACUUCUU: 1.48 ± 0.08. The same measure for AAACAUUCGCGGUGCACUUCUU: 1.84 ± 0.035. With AAACCGUUACCAUUACUGAGUU, the “HRG-induced Akt activation (log2)” value was determined as 1.22 ± 0.2. In the case of AAACCUGUGUUGUUCAAGAGUC it was 0.883 ± 0.023.

In the case of AAACUACUGAAAAUCAAAGAU, the “HRG-induced Akt activation (log2)” value is 1.76 ± 0.11. The same measure for AAACUCUACUUGUCCUUCUGAGU: 0.945 ± 0.39; for AAAGACAUAGGAUAGAGUCACCUC: 1.9 ± 0.072; for AAAGCGCUUCCCUUCAGAGUG: 1.53 ± 0.33. In the case of AAAGGAUUCUGCUGUCGGUCCCACU it was 1.63 ± 0.2; in that of AAAGUAGCUGUACCAUUUGC, 1.44 ± 0.56. In the case of AAAGUGCAUCCUUUUAGAGGUU it was 0.411 ± 0.64. Turning to AAAGUGCAUCCUUUUAGAGUGU, the “HRG-induced Akt activation (log2)” value was found to be 0.756 ± 0.11.

For the sequence AAAGUGCAUCUUUUUAGAGGAU, the “HRG-induced Akt activation (log2)” value was 0.724 ± 0.058. As to AAAGUGCUGCGACAUUUGAGCGU, the “HRG-induced Akt activation (log2)” value amounted to 0.644 ± 0.26.

In the case of AAAGUGCUUCCCUUUGGACUGU, the “HRG-induced Akt activation (log2)” value worked out at 0.806 ± 0.049. Take AAAGUGCUUCCUUUUAGAGGG: the “HRG-induced Akt activation (log2)” value came to 0.928 ± 0.12. The same measure for AAAGUGCUUCCUUUUAGAGGGU: 0.665 ± 0.11.

As to AAAGUGCUUCCUUUUUGAGGG, the “HRG-induced Akt activation (log2)” value was 0.963 ± 0.46. Turning to AAAGUGCUUCUCUUUGGUGGGU, the “HRG-induced Akt activation (log2)” value amounted to 0.92 ± 0.047. For AAAGUUCUGAGACACUCCGACU, the “HRG-induced Akt activation (log2)” value amounted to 1.35 ± 0.082. Regarding AAAUCUCUGCAGGCAAAUGUGA, the “HRG-induced Akt activation (log2)” value was 1.19 ± 0.11. In the case of AAAUUAUUGUACAUCGGAUGAG it was 1.48 ± 0.61; in that of AACAAUAUCCUGGUGCUGAGUG, 1.79 ± 0.41. The same measure for AACACACCUAUUCAAGGAUUCA: 1.11 ± 0.37; for AACACACCUGGUUAACCUCUUU: 1.23 ± 0.54; for AACAGGUGACUGGUUAGACAA: 2.3 ± 0.13. The same measure for AACAUAGAGGAAAUUCCACGU: 1.17 ± 0.5; for AACAUCACAGCAAGUCUGUGCU: 1.32 ± 0.38; for AACAUUCAACCUGUCGGUGAGU: 2.38 ± 0.33.

As for AACAUUCAACGCUGUCGGUGAGU, the “HRG-induced Akt activation (log2)” value turned out to be 1.71 ± 0.13.

Consider AACAUUCAUUGCUGUCGGUGGGU, for which the “HRG-induced Akt activation (log2)” value came to 1.77 ± 0.45. Consider AACAUUCAUUGUUGUCGGUGGGU, for which the “HRG-induced Akt activation (log2)” value stood at 2.236 ± 0.017. For AACCAGCACCCCAACUUUGGAC, the “HRG-induced Akt activation (log2)” value was found to be 2.3 ± 0.14. Regarding AACCAUCGACCGUUGAGUGGAC, the “HRG-induced Akt activation (log2)” value was found to be 0.92 ± 0.14. On to AACCCGUAGAUCCGAACUUGUG, for which the “HRG-induced Akt activation (log2)” value amounted to 1.11 ± 0.13.

Take AACCCGUAGAUCCGAUCUUGUG: the “HRG-induced Akt activation (log2)” value was determined as 0.985 ± 0.36. In the case of AACGCACUUCCCUUUAGAGUGU it was 1.23 ± 0.16; in that of AACGCCAUUAUCACACUAAAUA, 1.14 ± 0.04.

AACUGGAUCAAUUAUAGGAGUG: the “HRG-induced Akt activation (log2)” value was 1.79 ± 0.16. For the sequence AACUGGCCCUCAAAGUCCCGCU, the “HRG-induced Akt activation (log2)” value stood at 2.215 ± 0.013. In the case of AACUGGCCUACAAAGUCCCAGU it was 2.21 ± 0.14; in that of AACUGUUUGCAGAGGAAACUGA, 1.816 ± 0.014; in that of AAGACGGGAGGAAAGAAGGGAG, 1.22 ± 0.24. As for AAGAUGUGGAAAAAUUGGAAUC, the “HRG-induced Akt activation (log2)” value worked out at 1.68 ± 0.17.

For the sequence AAGCAGCUGCCUCUGAGGC, the “HRG-induced Akt activation (log2)” value is 2.16 ± 0.21. For AAGCAUUCUUUCAUUGGUUGG, the “HRG-induced Akt activation (log2)” value worked out at 1.4 ± 0.014. In the case of AAGCCCUUACCCCAAAAAGCAU it was 1.6 ± 0.26; in that of AAGCCCUUACCCCAAAAAGUAU, 1.73 ± 0.12; in that of AAGCCUGCCCGGCUCCUCGGG, 1.81 ± 0.26. The same measure for AAGCUGCCAGUUGAAGAACUGU: 1.23 ± 0.26. On to AAGGAGCUCACAGUCUAUUGAG, for which the “HRG-induced Akt activation (log2)” value amounted to 1.97 ± 0.2. As for AAGGAGCUUACAAUCUAGCUGGG, the “HRG-induced Akt activation (log2)” value was 1.87 ± 0.21. As for AAGGCAGGGCCCCCGCUCCCC, the “HRG-induced Akt activation (log2)” value was determined as 1.14 ± 0.77.

AAGUAGUUGGUUUGUAUGAGAUGGUU: the “HRG-induced Akt activation (log2)” value was determined as 1.424 ± 0.014. The same measure for AAGUGAUCUAAAGGCCUACAU: 1.67 ± 0.14; for AAGUGCCGCCAUCUUUUGAGUGU: 0.888 ± 0.34; for AAGUGCCUCCUUUUAGAGUGUU: 0.982 ± 0.27. In the case of AAGUGCUGUCAUAGCUGAGGUC it was 0.879 ± 0.58; in that of AAGUGCUUCCUUUUAGAGGGUU, 0.817 ± 0.012; in that of AAGUGUGCAGGGCACUGGU, 2.33 ± 0.23. For the sequence AAGUUCUGUUAUACACUCAGGC, the “HRG-induced Akt activation (log2)” value is 1.154 ± 0.01. For the sequence AAUAAUACAUGGUUGAUCUUU, the “HRG-induced Akt activation (log2)” value came out at 1.38 ± 0.066. AAUAUAACACAGAUGGCCUGU: the “HRG-induced Akt activation (log2)” value was 1.36 ± 0.25. In the case of AAUAUUAUACAGUCAACCUCU, the “HRG-induced Akt activation (log2)” value is 1.21 ± 0.51. Regarding AAUCACUAACCACACGGCCAGG, the “HRG-induced Akt activation (log2)” value was found to be 1.79 ± 0.65.

AAUCAUACACGGUUGACCUAUU: the “HRG-induced Akt activation (log2)” value was 1.41 ± 0.42. Turning to AAUCAUACAGGGACAUCCAGUU, the “HRG-induced Akt activation (log2)” value came to 1.86 ± 0.16. The same measure for AAUCAUGUGCAGUGCCAAUAUG: 1.51 ± 0.15; for AAUCCUUGGAACCUAGGUGUGAGU: 2.15 ± 0.11. The same measure for AAUCCUUUGUCCCUGGGUGAGA: 1.76 ± 0.094; for AAUCGUACAGGGUCAUCCACUU: 1.46 ± 0.051; for AAUGACACGAUCACUCCCGUUGA: 1.48 ± 0.35. In the case of AAUGCACCCGGGCAAGGAUUCU, the “HRG-induced Akt activation (log2)” value came to 1.91 ± 0.056. With AAUGCACCUGGGCAAGGAUUCA, the “HRG-induced Akt activation (log2)” value came out at 1.43 ± 0.42.

Take AAUGGAUUUUUGGAGCAGG: the “HRG-induced Akt activation (log2)” value worked out at 2.12 ± 0.2.

As for AAUGGCGCCACUAGGGUUGUG, the “HRG-induced Akt activation (log2)” value was found to be 1.42 ± 0.35. The same measure for AAUUGCACGGUAUCCAUCUGUA: 1.15 ± 0.15; for AAUUGCACUUUAGCAAUGGUGA: 1.14 ± 0.04. With ACAAAGUGCUUCCCUUUAGAGU, the “HRG-induced Akt activation (log2)” value turned out to be 1.75 ± 0.12. Consider ACAAAGUGCUUCCCUUUAGAGUGU, for which the “HRG-induced Akt activation (log2)” value was found to be 1.41 ± 0.53.

For ACACAGGGCUGUUGUGAAGACU, the “HRG-induced Akt activation (log2)” value is 1.74 ± 0.1. Consider ACAGAUUCGAUUCUAGGGGAAU, for which the “HRG-induced Akt activation (log2)” value was found to be 1.75 ± 0.2. In the case of ACAGCAGGCACAGACAGGCAGU, the “HRG-induced Akt activation (log2)” value is 1.75 ± 0.28. Take ACAGGUGAGGUUCUUGGGAGCC: the “HRG-induced Akt activation (log2)” value was 1.32 ± 0.087.

Consider ACAGUAGAGGGAGGAAUCGCAG, for which the “HRG-induced Akt activation (log2)” value amounted to 1.42 ± 0.22. With ACAGUAGUCUGCACAUUGGUUA, the “HRG-induced Akt activation (log2)” value came to 1.692 ± 0.0034.

ACAGUCUGCUGAGGUUGGAGC: the “HRG-induced Akt activation (log2)” value was 1.54 ± 0.044. The same measure for ACCACUGACCGUUGACUGUACC: 1.81 ± 0.74. Turning to ACCAGGAGGCUGAGGCCCCU, the “HRG-induced Akt activation (log2)” value was 1.68 ± 0.1. The same measure for ACCAUCGACCGUUGAUUGUACC: 1.35 ± 0.22. In the case of ACCCGUCCCGUUCGUCCCCGGA it was 1.513 ± 0.0044. The same measure for ACCCUAUCAAUAUUGUCUCUGC: 1.33 ± 0.23; for ACCGUGCAAAGGUAGCAUA: 1.89 ± 0.11; for ACCGUGGCUUUCGAUUGUUACU: 1.58 ± 0.11. As for ACCUGGCAUACAAUGUAGAUUU, the “HRG-induced Akt activation (log2)” value was determined as 1.81 ± 0.29. As for ACCUUCUUGUAUAAGCACUGUGCUAAA, the “HRG-induced Akt activation (log2)” value came out at 1.54 ± 0.13.
